Experimental findings from patent US6979681B2, “Half-sandwich ruthenium (II) compounds comprising nitrogen containing ligands for treatment of cancer” (University Court, The University of Edinburgh, priority 1999, dated 2005) are described below.

For this test, the system named is A2780 ovarian cancer cell line. Kind of test: Cell growth inhibition of Ru compounds on A2780 ovarian cancer cell line (24-well trays, Coulter counter). The class given is cell-based. The conditions noted are these: 24 hours drug exposure, further 3 days growth, cell count. The procedure:
The compounds are tested on 24-well trays. Cells growing in a flask are harvested just before they become confluent, counted using a haemocytometer and diluted down with media to a concentration of 1×10^4 cells per ml. The cells are then seeded in the 24-well trays at a density of 1×10^4 cells per well (i.e. 1 ml of the diluted cell suspension is added to each well). The cells are then left to plate down and grow for 72 hours before adding the compounds of the invention.
The Ru complexes are weighed out and made up to a concentration of 1 mg/ml with deionised water then sonicated until they go into solution. The appropriate volume of the Ru solution is added to 5 ml of media to make it up to a concentration of 100 μM for each drug. This 100 μM solution is then serially diluted to make up the 10 μM, 1 μM and 0.1 μM solutions.
The media is removed from the cells and replaced with 1 ml of the media dosed with drug. Each concentration is done in duplicate. A set of control wells are left on each plate, containing media without drug.
The cells are left exposed to the drugs for 24 hours and then washed with phosphate buffered saline before fresh media is added.
They are allowed to grow on for a further 3 days before being counted using a Coulter counter.
Preparing cells for counting:
Media is removed and 1 ml of PBS is added to the cells.
250 μl of trypsin is added and cells left in incubator for a few minutes to allow the monolayers to detach.
Once trypsinised, 250 μl of media is added to each well to neutralise the trypsin. 200 μl of this suspension is added to 10 ml of NaCl for counting.
Using the above protocol, a number of compounds of the invention were tested on A2780 ovarian cancer cell line.
Broadly, the IC50 is the concentration needed to halve the response being measured. Low values mean greater potency in that assay, high ones weaker potency in that assay. As for “[(η^6-p-cymene)RuBr(CH3CN)2]^+[PF6]^− [Example 2]”, the IC50 was found to be 8 µM.

`F[P-](F)(F)(F)(F)F.[Cl][Ru-]1[NH2+]CC[NH2+]1.c1ccccc1` [Example 3, [(η^6-C6H6)RuCl(H2NCH2CH2NH2—N,N)]^+[PF6]^−] returned an IC50 of 8 µM.

In turn, “[(η^6-p-cymene)RuI(H2NCH2CH2NH2—N, N)]^+[PF6]^− [Example 6]” displayed an IC50 of 6 µM.

Take `F[P-](F)(F)(F)(F)F.F[P-](F)(F)(F)(F)F.[Cl][Ru-]1[NH2+]CC[NH+]1CCCCCC[NH+]1CC[NH2+][Ru-]1[Cl].c1ccc(-c2ccccc2)cc1.c1ccc(-c2ccccc2)cc1` (centres unmarked) [Example 11, {[η^6-C6H5C6H5)RuCl]2[H2N(CH2)2NH(CH2)6NH(CH22NH2—N,N′,N″,N′″]}^2+2PF6^−]: the IC50 was found to be 5 µM. The IC50 values of the last two compounds are within 1.5-fold of each other.

Compound `F[P-](F)(F)(F)(F)F.[I][Ru-]1[NH2+]CC[NH2+]1.c1ccccc1` [Example 4, [(η^6-C6H6)RuI(H2NCH2CH2NH2—N,N)]^+[PF6]^−] gave an IC50 of 20 µM.

For the compound “[(η^6-p-cymene)RuCl(CH3CN)2]^+[PF6]^− [Example 1]”, the IC50 is 7 µM.

Compound `CC[NH+]1CC[NH2+][Ru-]1[Cl].F[P-](F)(F)(F)(F)F.c1ccc(-c2ccccc2)cc1` [Example 10, {(η^6-C6H5C6H5)RuCl[H2N(CH2)2NH(CH2CH3)]}^+PF6^−] returned an IC50 of 6 µM.

On to `COC(=O)c1ccccc1.F[P-](F)(F)(F)(F)F.[Cl][Ru-]1[NH2+]CC[NH2+]1` [Example 8, [η^6-C6H5CO2CH3)RuCl(H2NCH2CH2NH2—N,N)]^+[PF6]^−], for which inhibition was half-maximal at 55 µM (IC50). Compared with the last compound, the IC50 is about 9.2-fold higher.

Take `F[P-](F)(F)(F)(F)F.[Cl][Ru-]1[NH2+]CC[NH2+]1.c1ccc(-c2ccccc2)cc1` [Example 9, [(η^6-C6H5C6H5)RuCl(H2NCH2CH2NH2—N,N)]^+[PF6]^−]: the IC50 amounted to 6 µM.

With “[(η^6-p-cymene)RuCl(H2NCH2CH2NH2—N,N)]^+[PF6]^− [Example 5]”, the midpoint of inhibition, the IC50, lay at 8 µM.

For the compound “[(η^6-p-cymene)RuCl2(isonicotinamide)] [Example 7]”, the IC50 was determined as 11 µM.
